Measured values published in patent US9173879B2, “Crystalline forms of (S)-7-([1,2,4]triazolo[1,5-a ]pyridin-6-yl)-4-(3,4-dichlorophenyl)-1,2,3,4-tetrahydroisoquinoline and use thereof” (Bristol-Myers Squibb Company, priority 2009, dated 2015).
Where a name gives a salt, the structure may show the parent alone.

What was measured:
DAT = assay: Occupancy assay, ex vivo binding in brain tissue, DAT; conditions: dose 1 mg/kg, time point 3 hour
Excerpt: (§1) The general procedure for brain tissue collection and transporter occupancy assessment is briefly described as follows. Mice were sacrificed by asphyxiation in CO2, rats by decapitation and dogs by IV injection of euthanasia solution. For mice and rats, after the brains were removed from the skull, the forebrain tissue (removal of the brainstem and cerebellum) was used for SERT, NET, and DAT occupancy assessment. In dogs, the striatum was dissected for DAT occupancy and the remaining forebrain tissue (without the striatum, brainstem, and cerebellum) was used for SERT and NET occupancy assessment. The brain tissues were frozen in chilled isopentane and stored at −80° C. until homogenization.
(§2) The brain tissues were thawed and then homogenized using a polytron homogenizer (Kinematica). Sample aliquots were frozen immediately and stored at −80° C. Protein content was measured for each sample using a Coomassie protein assay kit (Pierce).
(§3) On the day of ex vivo binding for occupancy assessment, frozen sample aliquots were thawed and needle homogenized, and 100 μg of the tissue was incubated for SERT, NET, and DAT binding under assay conditions summarized in Table 1. […] Radioligand was measured using a Wallac Microbeta liquid scintillation counter.
(§4) The specific binding was calculated by subtracting the value of the non-specific binding from that of the total binding in each sample. […]

[1] = Mouse tail suspension assay; type: in vivo; conditions: male Swiss Webster mice, acute administration
Procedure: Male Swiss Webster mice were housed 3-4 per cage in rooms maintained at a constant temperature (21-23° C.) and humidity (50±10%) on a 12-hour light/dark cycle. Animals had ad libitum access to water and food throughout studies. On the day of testing, they were brought into the testing room and allowed to acclimate for 1 hour. To begin testing, the tail was attached to a piece of tape which was then attached to a hook on the ceiling of a sound-attenuated chamber. Immobility was automatically recorded using the Med Associates software. Compounds were administered acutely at a fixed pretreatment interval before session.

SERT = assay: Occupancy assay, ex vivo binding in brain tissue, SERT; conditions: dose 1 mg/kg, time point 3 hour
Excerpt: as §1, §2, §3, §4

NET = assay: Occupancy assay, ex vivo binding in brain tissue, NET; conditions: dose 1 mg/kg, time point 3 hour
Excerpt: as §1, §2, §3, §4

hSERT = hSERT (Homo sapiens (Human), UniProt P31645); assay: SERT radioligand binding assay ([125I]RTI-55, HEK-293 membranes)
Procedure: (§5) Recombinant HEK-293 cells expressing either the hSERT, hDAT, or hNET proteins were harvested from T-175 flasks as follows. The medium was removed from the flasks and the cells rinsed with HBSS without Ca and without Mg. The cells were then incubated for 5-10 minutes in 10 mM Tris-Cl, pH 7.5, 5 mM EDTA before the cells were lifted with a combination of pipetting and scraping, as needed. The cell suspension was collected into centrifuge bottles and homogenized for 30 seconds with a Polytron homogenizer. The suspension was centrifuged for 30 minutes at 32,000×g, 4° C. The supernatant was decanted and the pellet resuspended and homogenized in 50 mM Tris-Cl, pH 7.5, 1 mM EDTA for 10 seconds. The suspension was then centrifuged again for 30 minutes at 32,000×g, 4° C. The supernatant was decanted and the pellet resuspended in 50 mM Tris-Cl, pH 7.5, 1 mM EDTA and briefly homogenized. A Bradford assay (Bio-rad) was performed and the membrane preparation diluted to 2 mg/ml with 50 mM Tris-Cl, pH 7.5, 1 mM EDTA. […]
Compounds were dissolved in 100% DMSO at a concentration 100 times the desired highest assay concentration, serially diluted 1:3 in 100% DMSO, and 0.4 μl/well of each solution was dispensed to a Nunc polypropylene, round bottom, 384-well plate. […] The plates were air-dried overnight, 12 μl/well of MicroScint scintillation fluid added, and the plates counted in a Trilux. […]

hNET = hNET (Homo sapiens (Human), UniProt P23975); assay: NET radioligand binding assay ([3H]nisoxetine, HEK-293 membranes)
Procedure: as §5, with “seconds.” for “seconds. The suspension was then centrifuged again for 30 minutes at 32,000×g, 4° C. The supernatant was decanted and the pellet resuspended in 50 mM Tris-Cl, pH 7.5, 1 mM EDTA and briefly homogenized. A Bradford assay (Bio-rad) was performed and the membrane preparation diluted to 2 mg/ml with 50 mM Tris-Cl, pH 7.5, 1 mM EDTA.”
Compounds were dissolved in 100% DMSO at a concentration 100 times the desired highest assay concentration, serially diluted 1:3 in 100% DMSO, and 1.0 μl/well of each solution was dispensed to a Nunc polypropylene, round bottom, 384-well plate. […] The plates were air-dried overnight, 12 μl/well of MicroScint scintillation fluid added, and the plates counted in a Trilux.
(§6) The raw data was normalized to percent inhibition using control wells defining 0% (DMSO only) and 100% (selective inhibitor) inhibition which were run on each plate. […] The radioligand concentration chosen for each assay corresponds to the Kd concentration determined through saturation binding analysis for each assay.

hDAT = hDAT (Homo sapiens (Human), UniProt Q01959); assay: DAT radioligand binding assay ([125I]RTI-55, HEK-293 membranes)
Procedure: as §5, with “seconds.” for “seconds. The suspension was then centrifuged again for 30 minutes at 32,000×g, 4° C. The supernatant was decanted and the pellet resuspended in 50 mM Tris-Cl, pH 7.5, 1 mM EDTA and briefly homogenized. A Bradford assay (Bio-rad) was performed and the membrane preparation diluted to 2 mg/ml with 50 mM Tris-Cl, pH 7.5, 1 mM EDTA.”
Compounds were dissolved in 100% DMSO at a concentration 100 times the desired highest assay concentration, serially diluted 1:3 in 100% DMSO, and 0.4 μl/well of each solution was dispensed to a Nunc polypropylene, round bottom, 384-well plate. […] The plates were air-dried overnight, 12 μl/well of MicroScint scintillation fluid added, and the plates counted in a Trilux.
as §6

Sequence of hNET (P23975 whole entry): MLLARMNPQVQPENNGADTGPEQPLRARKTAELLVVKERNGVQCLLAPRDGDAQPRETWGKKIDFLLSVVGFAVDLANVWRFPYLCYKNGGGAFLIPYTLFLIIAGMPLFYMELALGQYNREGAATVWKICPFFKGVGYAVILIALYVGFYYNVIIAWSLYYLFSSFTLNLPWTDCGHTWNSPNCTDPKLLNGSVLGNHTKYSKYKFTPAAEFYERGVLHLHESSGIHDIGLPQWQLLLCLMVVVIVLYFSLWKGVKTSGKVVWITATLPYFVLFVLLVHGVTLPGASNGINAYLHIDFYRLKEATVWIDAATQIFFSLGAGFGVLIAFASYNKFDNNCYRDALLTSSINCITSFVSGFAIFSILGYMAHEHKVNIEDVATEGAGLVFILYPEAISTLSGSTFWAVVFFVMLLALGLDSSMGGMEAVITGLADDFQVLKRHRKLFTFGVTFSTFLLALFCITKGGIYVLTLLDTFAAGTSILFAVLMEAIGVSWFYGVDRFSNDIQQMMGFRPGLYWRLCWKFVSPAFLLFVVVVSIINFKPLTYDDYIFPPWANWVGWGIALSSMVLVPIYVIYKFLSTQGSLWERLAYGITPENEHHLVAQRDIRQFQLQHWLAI
Sequence of hDAT (Q01959 whole entry): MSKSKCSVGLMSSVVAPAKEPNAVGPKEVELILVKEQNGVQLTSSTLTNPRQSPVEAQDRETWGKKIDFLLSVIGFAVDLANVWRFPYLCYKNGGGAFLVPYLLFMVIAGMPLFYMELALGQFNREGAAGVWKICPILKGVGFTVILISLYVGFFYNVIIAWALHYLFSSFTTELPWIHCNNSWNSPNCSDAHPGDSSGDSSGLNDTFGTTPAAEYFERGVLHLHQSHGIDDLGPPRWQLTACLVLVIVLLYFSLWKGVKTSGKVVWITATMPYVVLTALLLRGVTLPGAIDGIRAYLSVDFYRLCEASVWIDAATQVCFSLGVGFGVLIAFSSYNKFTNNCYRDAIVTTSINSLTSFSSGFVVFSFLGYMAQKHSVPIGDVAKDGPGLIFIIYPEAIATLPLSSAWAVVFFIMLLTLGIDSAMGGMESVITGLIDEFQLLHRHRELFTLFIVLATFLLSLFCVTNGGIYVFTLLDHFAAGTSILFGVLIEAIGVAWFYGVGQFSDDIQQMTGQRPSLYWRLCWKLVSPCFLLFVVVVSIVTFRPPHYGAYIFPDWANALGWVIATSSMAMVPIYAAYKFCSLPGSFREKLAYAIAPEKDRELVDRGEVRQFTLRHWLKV

Structure (SMILES)	DAT Occupancy % (DAT)	minimum effective dose in the mouse tail suspension study [1]	SERT Occupancy % (SERT)	NET Occupancy % (NET)	IC50 (hSERT)	IC50 (hNET)	IC50 (hDAT)
Clc1ccc(C2CNCc3cc(-c4ccc5ncnn5c4)ccc32)cc1Cl (single isomer, unassigned; (+)) [Example 1 (+)-enantiomer, (+)-7-([1,2,4]triazolo[1,5-a]pyridin-6-yl)-4-(3,4-dichlorophenyl)-1,2,3,4-tetrahydroisoquinoline, L-tartrate salt]	26%	10 mg/kg	75%	11%	–	–	–
Clc1ccc(C2CNCc3cc(-c4ccc5ncnn5c4)ccc32)cc1Cl (single isomer, unassigned; enantiomer 7) [Example 1 (−)-enantiomer, 7-([1,2,4]triazolo[1,5-a]pyridin-6-yl)-4-(3,4-dichlorophenyl)-1,2,3,4-tetrahydroisoquinoline]	30%	–	41%	33%	4.2 nM	4.8 nM	105 nM
